Assay results as given in patent publication US20100311694A1, “Set of Geldanamycin Derivatives and Their Preparation Methods” (Institute of Medicinal Biotechnology, Chinese Academy of …, priority 2008, published 2010).

What was measured:
HBV = assay: Anti-HBV activity (HBV DNA in cell lysate, spot hybridization); type: cell-based; details: HBV DNA content of the cells, reagent solution changed every 4 days
Experimental: Test Procedure for Anti-HBV Activity
Using cell culture method, the preparation of the cells to be tested (100,000 cell's/mL) is inoculated into cell culture plate in 100 μl each well and the cells are cultured 24 h at 37° C. in 5% CO2. Tests are carried out when the cells grow into a monolayer. The target compounds as well as the controls are prepared into a series of solutions of appropriate concentrations using the culture medium and are added into 96 well culture plate respectively in 4 wells per one concentration. Then the reagent solution in each well is changed into the fresh reagent solution with the same concentration every 4 days. A cell control without reagent treatment is simultaneously is set up. The observation index is based upon the pathological changes of the cells by observing the degrees of the pathological changes of the cells under microscope every 8 days. […] Cell control without drug treatment is simultaneously is set up. The reagent solution or control medium in each well is changed into the fresh reagent solution or fresh medium respectively every 4 days. After cytolysis of the cells, HBV DNA is extracted from the cell lysis solution according to the molecular cloning technical procedure. The spots of different samples are hybridized and the A values of different hybridized spots are measured using autoradiograghic technique. The HBV DNA contents in the cell control as well as in the drug treated samples are calculated using the regression equations obtained from the standard curves to obtain half effective concentration values, the results are shown in Table 1.

HIV-1 = assay: Anti HIV-1 activity (HIV-1 P24 antigen in cell cultures); type: cell-based; details: 4 days after addition of the reagents
Experimental: Test Procedure of Anti HIV-1 Activity
8 reagent solutions of different diluted concentrations and positive control solutions are added into cell cultures in 96 well plate respectively. The sample of each diluted solutions is made duplicately and a control cell sample is also is set up. 100 μl of cell sample at a concentration of 2×10^5cells/ml is inoculated into the wells containing reagent in the plate. The cells samples are cultured in a saturated humidity culture chamber (at a 5% CO2 atmosphere) at 37° C. The pathological changes of cells are observed daily.

| Compound | Activity of HBV inhibition IC50 (HBV) [µg/mL] | Activity of HIV inhibition IC50 (HIV-1) [µg/mL] |
| --- | --- | --- |
| COC1C=CC=C(C)C(=O)NC2=CC(=O)C(NCCNC(=O)c3cccnc3)=C(CC(C)CC(OC)C(O)C(C)C=C(C)C1OC(N)=O)C2=O (stereo not drawn) [GM-418, 17-(2′-nicotinamidoethylamino)-17-demethoxy geldanamycin] | 0.08 | 0.37 |
| COC1C=CC=C(C)C(=O)NC2=CC(=O)C(NC3CCNCC3)=C(CC(C)CC(OC)C(O)C(C)C=C(C)C1OC(N)=O)C2=O (stereo not drawn) [GM-W37] | 1.32 | 1.43 |
| CO[C@H]1/C=C\C=C(/C)C(=O)NC2=CC(=O)C(NC[C@@H]3CCCO3)=C(C[C@@H](C)C[C@H](OC)[C@H](O)[C@@H](C)/C=C(\C)[C@@H]1OC(N)=O)C2=O [THFM(S)-GM, 2′S-17-tetrahydrofurfurylamino-17-demethoxy geldanamycin] | 0.032 | 0.06 |
| COC1C=CC=C(C)C(=O)NC2=CC(=O)C(NCCc3ccc(N)cc3)=C(CC(C)CC(OC)C(O)C(C)C=C(C)C1OC(N)=O)C2=O (stereo not drawn) [GM-W10] | 6.4 | 40.71 |
| COC1C=CC=C(C)C(=O)NC2=CC(=O)C(NCC(O)c3ccccc3)=C(CC(C)CC(OC)C(O)C(C)C=C(C)C1OC(N)=O)C2=O (stereo not drawn) [GM-W8] | 1.32 | 1.22 |
| CCN1CCCC1CNC1=C2CC(C)CC(OC)C(O)C(C)C=C(C)C(OC(N)=O)C(OC)C=CC=C(C)C(=O)NC(=CC1=O)C2=O (stereo not drawn) [GM-210R, 17-(2″R-2″-(N-ethylpyrrolidinyl)-methylamino)-17-demethoxy geldanamycin] | 0.064 | 0.01 |
| COC1C=CC=C(C)C(=O)NC2=CC(=O)C(NCCOCCO)=C(CC(C)CC(OC)C(O)C(C)C=C(C)C1OC(N)=O)C2=O (stereo not drawn) [GM-W25] | 0.32 | 0.43 |
| COC1C=CC=C(C)C(=O)NC2=CC(=O)C(NCc3ccc(C)o3)=C(CC(C)CC(OC)C(O)C(C)C=C(C)C1OC(N)=O)C2=O (stereo not drawn) [GM-W88] | 0.08 | 0.24 |
| COC1C=CC=C(C)C(=O)NC2=CC(=O)C(NCCCN3CCCC3)=C(CC(C)CC(OC)C(O)C(C)C=C(C)C1OC(N)=O)C2=O (stereo not drawn) [GM-W76] | 0.01 | 0.24 |
| COC1C=CC=C(C)C(=O)NC2=CC(=O)C(NN3CCOCC3)=C(CC(C)CC(OC)C(O)C(C)C=C(C)C1OC(N)=O)C2=O (stereo not drawn) [GM-W68] | 4.6 | 10.46 |
| 17-(4′-((5″-(4′″-amino-2′″-oxopyrimidine-1′″-(2H)-yl)-3″,4″-dihydroxyl-tetrahydrofuran-2″yl)methoxyl)-4′-oxobutylamino)-17-de methoxy geldanamycin [GM-CY] | 0.032 | 0.02 |
| COc1ccc(C=CC(=O)NCCNC2=C3C[C@H](C)C[C@H](OC)[C@H](O)[C@@H](C)/C=C(\C)[C@@H](OC(N)=O)[C@@H](OC)/C=C/C=C(\C)C(=O)NC(=CC2=O)C3=O)cc1OC [GM-413, 17-(2′-(3″,4″-dimethylcaffeoyl amido)ethylamino)-17-demethoxy geldanamycin] | 0.32 | 0.48 |
| COC1C=CC=C(C)C(=O)NC2=CC(=O)C(NN3CCCCC3)=C(CC(C)CC(OC)C(O)C(C)C=C(C)C1OC(N)=O)C2=O (stereo not drawn) [GM-W11] | 8.0 | 3.87 |
| C=CC(C)(CCC=C(C)CCC=C(C)CCC=C(C)C)OC(=O)CCCNC1=C2CC(C)CC(OC)C(O)C(C)C=C(C)C(OC(N)=O)C(OC)C=CC=C(C)C(=O)NC(=CC1=O)C2=O (stereo not drawn) [GM-W84] | 0.8 | 1.24 |
| COC1C=CC=C(C)C(=O)NC2=CC(=O)C(NCC(O)CO)=C(CC(C)CC(OC)C(O)C(C)C=C(C)C1OC(N)=O)C2=O (stereo not drawn) [GM-W74] | 8.9 | 0.47 |
| COC1C=CC=C(C)C(=O)NC2=CC(=O)C(NCCCN3CCOCC3)=C(CC(C)CC(OC)C(O)C(C)C=C(C)C1OC(N)=O)C2=O (stereo not drawn) [GM-W75] | 0.1 | 1.21 |
| COC1C=CC=C(C)C(=O)NC2=CC(=O)C(NCc3ccccn3)=C(CC(C)CC(OC)C(O)C(C)C=C(C)C1OC(N)=O)C2=O (stereo not drawn) [GM-W19] | 3.4 | 28.90 |
| COC1C=CC=C(C)C(=O)NC2=CC(=O)C(NN3CCCCC3)=C(CC(C)CC(OC)C(O)C(C)C=C(C)C1OC(N)=O)C2=O (stereo not drawn) [GM-W72] | 3.2 | 6.45 |
